Test results: ChEMBL document CHEMBL4020734, “Identification of a novel fluoropyrrole derivative as a potassium-competitive acid blocker with long duration of action” (Bioorg Med Chem, 2017)
Active and inactive are the calls of the source. No cut-off for these calls is given here.

How the values were obtained:
[1] = Dissociation constant, pKa of the compound; format: physicochemical
[2] = Effective permeability of the compound at 10 uM at pH 7.4 after 3 hrs by PAMPA; format: physicochemical; conditions: read-out: Peff
[3] = Cytotoxicity against human HepG2 cells assessed as cellular ATP level at 30 uM after 1 day by ATPLite assay relative to control; format: cell-based; conditions: read-out: Activity
Rattus norvegicus [4] = assay: Inhibition of histamine-induced acid secretion in Jcl:SD rat gastric at 1 mg/kg, iv pretreated for 3 mins followed by histamine.2HCl treatment measured after 3 hrs by titration method; format: functional
[5] = Lipophilicity, log D of the compound at pH 7.4 by HPLC analysis; format: physicochemical; conditions: buffer
Canis familiaris [6] = assay: Inhibition of histamine-induced acid secretion in dog heidenhain pouch at 1 mg/kg, po treated 1 day after and 1 to 48 hrs before histamine.2HCl treatment measured 30 mins post histamine challenge by titration method; format: functional, organism-based; conditions: Canis lupus familiaris
[7] = Inhibition of H+/K+-ATPase in porcine stomach gastric mucosal microsomes assessed as reduction in inorganic phosphate production using ATP as substrate preincubated for 30 mins followed by ATP addition in presence of KCl by malachite green reagent based colorimetric assay; set-up: species or system Sus scrofa
[8] = Effective permeability of the compound at 10 uM at pH 5 after 3 hrs by PAMPA; format: physicochemical; conditions: read-out: Peff
hERG (KCNH2) = hERG (KCNH2) (Homo sapiens, UniProt Q12809); assay: Inhibition of human ERG expressed in HEK cells at 10 uM at -75 mV holding potential by Whole-cell voltage clamp assay relative to control; format: cell-based; conditions: HEK cells expressing human ERG
[9] = Cytotoxicity against human HepG2 cells assessed as cellular ATP level at 100 uM after 1 day by ATPLite assay relative to control; format: cell-based; conditions: read-out: Activity
[10] = Inhibition of CYP450 (unknown origin); format: ADME; conditions: human
Canis familiaris [11] = assay: Inhibition of histamine-induced acid secretion in dog heidenhain pouch at 3 mg/kg, po treated 1 day after and 1 to 48 hrs before histamine.2HCl treatment measured 30 mins post histamine challenge by titration method; format: functional, organism-based; conditions: Canis lupus familiaris
Rattus norvegicus [12] = assay: Inhibition of histamine-induced acid secretion in Jcl:SD rat gastric assessed as pH of gastric perfusate at 3 mg/kg, iv pretreated for 3 mins followed by histamine.2HCl treatment measured in early time point by glass electrode method (reference value: 2); format: functional
Rattus norvegicus [13] = assay: Inhibition of histamine-induced acid secretion in Jcl:SD rat gastric assessed as increase in pH of gastric perfusate at 3 mg/kg, iv pretreated for 3 mins followed by histamine.2HCl treatment measured up to 5 hrs by glass electrode method; format: functional, organism-based

Chain of hERG (KCNH2) (Q12809 whole entry): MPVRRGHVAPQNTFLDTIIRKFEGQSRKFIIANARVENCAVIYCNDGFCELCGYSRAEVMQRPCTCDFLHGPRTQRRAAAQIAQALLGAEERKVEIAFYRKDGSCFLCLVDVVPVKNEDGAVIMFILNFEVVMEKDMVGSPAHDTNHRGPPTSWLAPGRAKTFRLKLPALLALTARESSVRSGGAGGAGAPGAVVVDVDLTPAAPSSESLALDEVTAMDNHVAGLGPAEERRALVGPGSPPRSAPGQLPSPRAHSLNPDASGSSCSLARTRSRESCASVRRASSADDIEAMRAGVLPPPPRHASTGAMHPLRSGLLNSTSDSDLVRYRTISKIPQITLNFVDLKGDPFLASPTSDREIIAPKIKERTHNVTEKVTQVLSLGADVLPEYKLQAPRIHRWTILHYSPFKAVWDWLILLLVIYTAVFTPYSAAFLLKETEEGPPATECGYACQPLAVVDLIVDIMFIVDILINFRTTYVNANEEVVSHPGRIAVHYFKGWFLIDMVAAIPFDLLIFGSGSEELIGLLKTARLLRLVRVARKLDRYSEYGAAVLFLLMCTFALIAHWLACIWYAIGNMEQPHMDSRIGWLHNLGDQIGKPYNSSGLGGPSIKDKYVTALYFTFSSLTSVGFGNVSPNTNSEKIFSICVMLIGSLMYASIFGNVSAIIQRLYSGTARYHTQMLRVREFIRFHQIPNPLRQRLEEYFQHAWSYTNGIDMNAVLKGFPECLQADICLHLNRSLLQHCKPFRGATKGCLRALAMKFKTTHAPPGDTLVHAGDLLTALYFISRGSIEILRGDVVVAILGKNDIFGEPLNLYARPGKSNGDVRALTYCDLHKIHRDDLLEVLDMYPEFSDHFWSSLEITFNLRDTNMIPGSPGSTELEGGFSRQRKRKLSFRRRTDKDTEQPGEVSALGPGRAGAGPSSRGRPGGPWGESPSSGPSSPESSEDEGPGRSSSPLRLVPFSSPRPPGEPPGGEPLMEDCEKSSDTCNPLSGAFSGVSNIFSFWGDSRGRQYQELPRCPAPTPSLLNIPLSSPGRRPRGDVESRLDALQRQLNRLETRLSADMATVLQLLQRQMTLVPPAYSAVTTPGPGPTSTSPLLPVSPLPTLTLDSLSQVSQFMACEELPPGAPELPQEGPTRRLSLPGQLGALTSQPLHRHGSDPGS

## CNCc1cc(-c2ccccc2)n(S(=O)(=O)c2ccc(OC)cc2)c1
[1]
  pKa: 9.48
[2]
  Papp at 3 h, 10 µM: 24.6 ×10⁻⁶ cm/s
[3]
  viability at 24 h, 30 µM: 22.1%
Rattus norvegicus [4]
  inhibition in vivo at 1 mg/kg: 95%
[5]
  logD: 1.54
Canis familiaris [6]
  inhibition: Active
[7]
  IC50: 30 nM
[8]
  Papp at 3 h, 10 µM: 19.8 ×10⁻⁶ cm/s
hERG (KCNH2)
  inhibition at 10 µM: 89.1%

## CNCc1cc(-c2ccccc2C)n(S(=O)(=O)c2ccc(C)cc2)c1
[3]
  viability at 24 h, 30 µM: 0.3%
Rattus norvegicus [4]
  inhibition in vivo at 1 mg/kg: 92%
[5]
  logD: 2.12
[7]
  IC50: 62 nM

## CNCc1cc(-c2cccnc2F)n(S(=O)(=O)c2ccccn2)c1
[9]
  viability at 24 h, 100 µM: 78.6%
Rattus norvegicus [4]
  inhibition in vivo at 1 mg/kg: 81%
[5]
  logD: 0.05
[7]
  IC50: 120 nM

## CNCc1cc(-c2cccnc2Cl)n(S(=O)(=O)c2cccnc2)c1
[9]
  viability at 24 h, 100 µM: 82.9%
Rattus norvegicus [4]
  inhibition in vivo at 1 mg/kg: 92%
[5]
  logD: -0.5
[7]
  IC50: 120 nM
hERG (KCNH2)
  inhibition at 10 µM: 10.6%

## CNCc1cc(-c2ccccc2F)n(S(=O)(=O)c2cccnc2)c1 [VONOPRAZAN]
[1]
  pKa: 9.3
[5]
  logD: 0.39

## CNCc1cc(-c2cccnc2F)n(S(=O)(=O)c2cccs2)c1
[9]
  viability at 24 h, 100 µM: 74.9%
Rattus norvegicus [4]
  inhibition in vivo at 1 mg/kg: 96%
[5]
  logD: -0.69
[7]
  IC50: 32 nM
hERG (KCNH2)
  inhibition at 10 µM: 63%

## CNCc1cc(-c2ccccn2)n(S(=O)(=O)c2ccccc2)c1
[9]
  viability at 24 h, 100 µM: 91.2%
[5]
  logD: 0.28
[7]
  IC50: 120 nM
hERG (KCNH2)
  inhibition at 10 µM: 48%

## CNCc1cc(-c2cccnc2F)n(S(=O)(=O)c2ccc(OC)nc2)c1
[9]
  viability at 24 h, 100 µM: 47.6%
Rattus norvegicus [4]
  inhibition in vivo at 1 mg/kg: 97%
[5]
  logD: 0.24
[7]
  IC50: 40 nM
hERG (KCNH2)
  inhibition at 10 µM: 33.1%

## CNCc1cc(-c2ccc(F)cc2)n(S(=O)(=O)c2ccc(C)cc2)c1
[1]
  pKa: 9.4
[3]
  viability at 24 h, 30 µM: 0.4%
Rattus norvegicus [4]
  inhibition in vivo at 1 mg/kg: 86%
[5]
  logD: 2.05
[7]
  IC50: 90 nM

## CNCc1cc(-c2ncccc2C)n(S(=O)(=O)c2cccnc2)c1
[9]
  viability at 24 h, 100 µM: 88.7%
Rattus norvegicus [4]
  inhibition in vivo at 1 mg/kg: 5%
[5]
  logD: 0.53
[7]
  IC50: 1300 nM

## CNCc1cc(-c2cccnc2F)n(S(=O)(=O)c2cccc(C#N)c2)c1
[9]
  viability at 24 h, 100 µM: 46.7%
Rattus norvegicus [4]
  inhibition in vivo at 1 mg/kg: 99%
[5]
  logD: -0.36
[7]
  IC50: 89 nM
hERG (KCNH2)
  inhibition at 10 µM: 46.7%

## CNCc1cc(-c2ccccc2F)n(S(=O)(=O)c2ccc(C)cc2)c1
[1]
  pKa: 9.48
[3]
  viability at 24 h, 30 µM: 8%
Rattus norvegicus [4]
  inhibition in vivo at 1 mg/kg: 91%
[5]
  logD: 1.56
[7]
  IC50: 34 nM

## CNCc1cc(-c2cccnc2F)n(S(=O)(=O)c2ccoc2)c1
[9]
  viability at 24 h, 100 µM: 77.4%
Rattus norvegicus [4]
  inhibition in vivo at 1 mg/kg: 82%
[5]
  logD: -1.31
[7]
  IC50: 92 nM
hERG (KCNH2)
  inhibition at 10 µM: 59.3%

## CNCc1cc(-c2cccnc2C)n(S(=O)(=O)c2cccnc2)c1
[9]
  viability at 24 h, 100 µM: 107%
Rattus norvegicus [4]
  inhibition in vivo at 1 mg/kg: -41%
[5]
  logD: 0.06
[7]
  IC50: 250 nM

## CNCc1cc(-c2ccccc2C(F)(F)F)n(S(=O)(=O)c2ccc(C)cc2)c1
[3]
  viability at 24 h, 30 µM: 0.5%
Rattus norvegicus [4]
  inhibition in vivo at 1 mg/kg: 86%
[5]
  logD: 1.94
[7]
  IC50: 88 nM

## CNCc1cc(-c2cccnc2F)n(S(=O)(=O)c2ccco2)c1
[9]
  viability at 24 h, 100 µM: 68.7%
Rattus norvegicus [4]
  inhibition in vivo at 1 mg/kg: 74%
[5]
  logD: -1.15
[7]
  IC50: 59 nM
hERG (KCNH2)
  inhibition at 10 µM: 49.1%

## CNCc1cc(-c2cccnc2F)n(S(=O)(=O)c2cccc(OC)c2)c1
[9]
  viability at 24 h, 100 µM: 30.6%
Rattus norvegicus [4]
  inhibition in vivo at 1 mg/kg: 92%
[5]
  logD: 0.1
[7]
  IC50: 28 nM
hERG (KCNH2)
  inhibition at 10 µM: 72.8%

## CNCc1cc(-c2cccnc2F)n(S(=O)(=O)c2cccc(F)c2)c1
[9]
  viability at 24 h, 100 µM: 65.9%
Rattus norvegicus [4]
  inhibition in vivo at 1 mg/kg: 99%
[5]
  logD: 0.23
[7]
  IC50: 33 nM
hERG (KCNH2)
  inhibition at 10 µM: 56.2%

## CNCc1cc(-c2cccnc2F)n(S(=O)(=O)c2ccsc2)c1
[9]
  viability at 24 h, 100 µM: 64%
Rattus norvegicus [4]
  inhibition in vivo at 1 mg/kg: 98%
[5]
  logD: -0.83
[7]
  IC50: 32 nM
hERG (KCNH2)
  inhibition at 10 µM: 60%

## CNCc1cc(-c2cccnc2F)n(S(=O)(=O)c2ccccc2)c1
[9]
  viability at 24 h, 100 µM: 59.9%
Rattus norvegicus [4]
  inhibition in vivo at 1 mg/kg: 99%
[5]
  logD: -0.09
[7]
  IC50: 26 nM
hERG (KCNH2)
  inhibition at 10 µM: 57%

## CNCc1cc(-c2ccccc2)n(S(=O)(=O)c2ccccc2)c1
[3]
  viability at 24 h, 30 µM: 53.8%
Rattus norvegicus [4]
  inhibition in vivo at 1 mg/kg: 96%
[5]
  logD: 1.44
[7]
  IC50: 9.4 nM
hERG (KCNH2)
  inhibition at 10 µM: 87.5%

## CNCc1cn(S(=O)(=O)c2cccnc2)c(-c2cccnc2F)c1Cl
[9]
  viability at 24 h, 100 µM: 64.5%
Rattus norvegicus [4]
  inhibition in vivo at 1 mg/kg: 95%
[5]
  logD: 0.48
[7]
  IC50: 99 nM
hERG (KCNH2)
  inhibition at 10 µM: 41.3%

## CNCc1cc(-c2cccnc2C#N)n(S(=O)(=O)c2cccnc2)c1
[9]
  viability at 24 h, 100 µM: 85.3%
Rattus norvegicus [4]
  inhibition in vivo at 1 mg/kg: 48%
[5]
  logD: -1.29
[7]
  IC50: 530 nM
hERG (KCNH2)
  inhibition at 10 µM: 1.9%

## CNCc1cc(-c2cncnc2)n(S(=O)(=O)c2ccccc2)c1
[9]
  viability at 24 h, 100 µM: 97.5%
[5]
  logD: -0.4
[7]
  IC50: 410 nM
hERG (KCNH2)
  inhibition at 10 µM: 24.2%

## CNCc1cc(-c2ccccc2)n(S(=O)(=O)c2ccc(C)cc2)c1
[1]
  pKa: 9.49
[3]
  viability at 24 h, 30 µM: 38.6%
Rattus norvegicus [4]
  inhibition in vivo at 1 mg/kg: 66%
[5]
  logD: 1.83
[7]
  IC50: 46 to 55 nM

## Cc1c(OCC(F)(F)F)ccnc1C[S+]([O-])c1nc2ccccc2[nH]1 (centres undefined) [LANSOPRAZOLE]
[10]
  inhibition (INH): Active
Canis familiaris [11]
  inhibition: Active
Rattus norvegicus [12]
  pH: <5
Rattus norvegicus [13]
  inhibition: inactive

## CNCc1cc(-c2cnccc2C)n(S(=O)(=O)c2cccnc2)c1
[9]
  viability at 24 h, 100 µM: 86%
Rattus norvegicus [4]
  inhibition in vivo at 1 mg/kg: -54%
[5]
  logD: -0.51
[7]
  IC50: 230 nM
hERG (KCNH2)
  inhibition at 10 µM: 8.3%

## CNCc1cc(-c2ccncc2F)n(S(=O)(=O)c2cccnc2)c1
[9]
  viability at 24 h, 100 µM: 78.8%
Rattus norvegicus [4]
  inhibition in vivo at 1 mg/kg: 48%
[5]
  logD: -0.34
[7]
  IC50: 290 nM
hERG (KCNH2)
  inhibition at 10 µM: 18.8%

## CNCc1cc(-c2cccnc2Cl)n(S(=O)(=O)c2ccccc2)c1
[9]
  viability at 24 h, 100 µM: 76.3%
Rattus norvegicus [4]
  inhibition in vivo at 1 mg/kg: 99%
[5]
  logD: -0.1
[7]
  IC50: 43 nM
hERG (KCNH2)
  inhibition at 10 µM: 40.9%

## CNCc1cc(-c2cccc(F)c2)n(S(=O)(=O)c2ccc(C)cc2)c1
[1]
  pKa: 9.31
[3]
  viability at 24 h, 30 µM: 0.6%
Rattus norvegicus [4]
  inhibition in vivo at 1 mg/kg: 77%
[5]
  logD: 1.98
[7]
  IC50: 19 nM

## CNCc1cn(S(=O)(=O)c2cccnc2)c(-c2cccnc2F)c1C
[9]
  viability at 24 h, 100 µM: 47.1%
Rattus norvegicus [4]
  inhibition in vivo at 1 mg/kg: 93%
[5]
  logD: -0.4
[7]
  IC50: 220 nM
hERG (KCNH2)
  inhibition at 10 µM: 30.3%

## CNCc1cc(-c2ccccc2)n(S(=O)(=O)c2cccnc2)c1
[5]
  logD: 0.73
